Values of other authors as cited in US12295926B1, “Modified release gamma-hydroxybutyrate formulations having improved pharmacokinetics” (Flamel Ireland Limited, priority 2022, dated 2025).
Like-named read-outs stand apart in the source and are kept apart here.

Assays:
[1] = 6 g per day with ibuprofen 800 mg four times per day
CYP2E1 = CYP2E1 (Homo sapiens, UniProt P05181); conditions: up to 3 mM (378 mcg/mL)
CYP2C19 = CYP2C19 (Homo sapiens, UniProt P33261); conditions: up to 3 mM (378 mcg/mL)
CYP3A = conditions: up to 3 mM (378 mcg/mL)
pregnant rats = conditions: 150, 350, or 1,000 mg/kg/day
CYP2D6 = CYP2D6 (Homo sapiens, UniProt P10635); conditions: up to 3 mM (378 mcg/mL)
Chain of CYP2D6 (P10635 whole entry): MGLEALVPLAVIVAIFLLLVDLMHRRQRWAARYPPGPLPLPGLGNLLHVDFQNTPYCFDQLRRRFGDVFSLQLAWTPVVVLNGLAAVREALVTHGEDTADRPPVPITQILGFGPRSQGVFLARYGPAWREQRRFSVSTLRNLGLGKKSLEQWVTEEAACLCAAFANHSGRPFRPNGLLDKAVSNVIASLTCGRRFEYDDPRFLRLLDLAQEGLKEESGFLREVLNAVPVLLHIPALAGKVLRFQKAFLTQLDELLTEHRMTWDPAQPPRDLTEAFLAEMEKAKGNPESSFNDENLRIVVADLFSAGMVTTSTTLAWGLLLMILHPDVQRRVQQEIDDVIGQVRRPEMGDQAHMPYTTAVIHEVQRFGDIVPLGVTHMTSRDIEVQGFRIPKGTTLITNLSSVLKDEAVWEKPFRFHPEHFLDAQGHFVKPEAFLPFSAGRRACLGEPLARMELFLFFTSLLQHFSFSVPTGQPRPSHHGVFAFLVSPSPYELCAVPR

male and female rats = conditions: 150, 350, or 1,000 mg/kg/day
[2] = 6 g per day with diclofenac 50 mg twice per day
plasma proteins = conditions: 3 mcg/mL to 300 mcg/mL
CYP1A2 = molecular target: T1, CYP1A2 (Homo sapiens, UniProt P05177); conditions: up to 3 mM (378 mcg/mL)
T1 sequence (P05177 1-516): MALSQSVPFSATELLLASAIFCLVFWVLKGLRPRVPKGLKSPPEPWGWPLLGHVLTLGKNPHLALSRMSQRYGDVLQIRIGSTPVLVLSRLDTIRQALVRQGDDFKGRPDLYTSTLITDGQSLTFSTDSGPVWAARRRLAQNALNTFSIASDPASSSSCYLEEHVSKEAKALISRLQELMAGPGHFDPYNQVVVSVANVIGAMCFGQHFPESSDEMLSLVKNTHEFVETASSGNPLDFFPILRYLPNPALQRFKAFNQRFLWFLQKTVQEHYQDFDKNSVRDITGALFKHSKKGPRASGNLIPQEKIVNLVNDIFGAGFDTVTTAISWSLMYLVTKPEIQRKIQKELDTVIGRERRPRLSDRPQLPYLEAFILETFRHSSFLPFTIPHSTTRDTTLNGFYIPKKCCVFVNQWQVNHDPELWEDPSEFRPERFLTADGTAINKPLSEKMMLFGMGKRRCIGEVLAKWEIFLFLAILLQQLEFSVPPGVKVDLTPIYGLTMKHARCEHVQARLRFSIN

rats [3] = conditions: highest dose tested (1,000 mg/kg/day)
[4] = not given; remark: listed apart in the source
[5] = 4.5 g oral
pregnant rabbits = conditions: 300, 600, or 1,200 mg/kg/day
rat [6] = conditions: in vivo
CYP2C9 = CYP2C9 (Homo sapiens, UniProt P11712); conditions: up to 3 mM (378 mcg/mL)
Chain of CYP2C9 (P11712 whole entry): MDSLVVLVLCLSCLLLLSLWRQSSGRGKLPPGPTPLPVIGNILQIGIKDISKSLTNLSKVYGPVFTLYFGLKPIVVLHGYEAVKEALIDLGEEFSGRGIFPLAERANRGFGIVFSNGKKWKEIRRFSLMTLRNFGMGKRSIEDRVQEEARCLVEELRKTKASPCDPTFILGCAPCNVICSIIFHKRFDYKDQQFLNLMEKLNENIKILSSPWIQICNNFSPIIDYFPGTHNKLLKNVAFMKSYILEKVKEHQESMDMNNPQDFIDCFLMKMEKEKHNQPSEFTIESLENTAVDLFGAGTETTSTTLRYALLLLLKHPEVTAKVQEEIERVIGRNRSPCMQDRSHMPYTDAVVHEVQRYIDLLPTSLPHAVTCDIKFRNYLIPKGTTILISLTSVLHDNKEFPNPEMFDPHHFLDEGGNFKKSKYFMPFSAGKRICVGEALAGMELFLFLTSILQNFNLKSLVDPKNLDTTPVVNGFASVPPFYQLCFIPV

rats [7] = test system: rats
rats [8] = conditions: 0, 100, 300, or 900 mg/kg/day
rat [9] = conditions: 2-year
mouse = conditions: 2-year

Chain of CYP2C19 (P33261 whole entry): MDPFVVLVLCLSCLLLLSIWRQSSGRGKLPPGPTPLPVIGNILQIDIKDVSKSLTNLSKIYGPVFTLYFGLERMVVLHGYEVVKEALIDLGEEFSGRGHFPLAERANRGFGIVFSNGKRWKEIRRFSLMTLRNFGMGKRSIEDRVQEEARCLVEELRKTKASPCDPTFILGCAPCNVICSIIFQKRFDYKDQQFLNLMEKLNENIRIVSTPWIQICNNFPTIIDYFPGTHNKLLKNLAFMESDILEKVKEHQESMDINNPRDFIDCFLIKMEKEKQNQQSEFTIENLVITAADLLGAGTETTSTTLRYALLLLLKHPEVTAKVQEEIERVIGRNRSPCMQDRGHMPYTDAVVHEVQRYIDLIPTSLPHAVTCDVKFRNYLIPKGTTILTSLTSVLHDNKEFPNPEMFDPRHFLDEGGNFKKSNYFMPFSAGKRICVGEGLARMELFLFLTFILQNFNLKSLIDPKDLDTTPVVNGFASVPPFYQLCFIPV
Chain of CYP2E1 (P05181 whole entry): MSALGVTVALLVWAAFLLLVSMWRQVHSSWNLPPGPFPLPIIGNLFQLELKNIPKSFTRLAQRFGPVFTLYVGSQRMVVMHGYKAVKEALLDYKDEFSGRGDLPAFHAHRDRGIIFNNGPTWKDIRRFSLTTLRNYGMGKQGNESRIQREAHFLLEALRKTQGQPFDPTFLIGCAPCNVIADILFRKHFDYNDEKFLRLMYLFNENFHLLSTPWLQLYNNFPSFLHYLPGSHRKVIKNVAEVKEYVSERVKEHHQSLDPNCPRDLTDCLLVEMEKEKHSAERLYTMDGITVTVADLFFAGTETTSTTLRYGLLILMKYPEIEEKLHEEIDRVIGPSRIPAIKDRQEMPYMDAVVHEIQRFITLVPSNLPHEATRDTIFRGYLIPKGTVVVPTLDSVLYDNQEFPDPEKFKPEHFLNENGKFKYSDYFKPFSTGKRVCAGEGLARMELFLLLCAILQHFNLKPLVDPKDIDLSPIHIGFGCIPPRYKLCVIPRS

For O=C([O-])CCCO.[Na+] [sodium oxybate, sodium 4-hydroxybutanoate], the Bacterial gene mutation (bacteria) is listed as “negative”, the “Systemic exposure to GHB on co-administration” value [1] is listed as “comparable systemic exposure to GHB” and the “Inhibition of CYP2E1” value (CYP2E1) is listed as “does not significantly inhibit”. The Chromosomal aberration (mammalian cells) was “negative”, the “Inhibition of CYP2C19” value (CYP2C19) was “does not significantly inhibit” and the “Inhibition of CYP3A” value (CYP3A) was “does not significantly inhibit”. The Developmental toxicity (pregnant rats) was “no clear evidence of developmental toxicity”, the “Inhibition of CYP2D6” value (CYP2D6) was “does not significantly inhibit” and the Effects on fertility (male and female rats) was “no adverse effects on fertility”. The “Systemic exposure to GHB on co-administration” value [2] was “no significant differences in systemic exposure to GHB”, the “Bound to plasma proteins” value (plasma proteins) was “less than 1%” and the “Apparent volume of distribution” value (in vivo) was 190 to 384 mL/kg. The Elimination half-life (in vivo) was 30 to 60 min, the “Unchanged drug in human urine” value (within 6 to 8 hours after dosing) was “less than 5%” and the “Inhibition of CYP1A2” value (CYP1A2) was “does not significantly inhibit”. For the same compound, the “Pre- and post-natal effects” value (rats [3]) was “increased stillbirths and decreased offspring postnatal viability and body weight gain”, the “AUC in cirrhotic patients vs normal hepatic function” value ([4]; 25 mg/kg oral) was “double” and the Apparent oral clearance ([4]; Child's Class A) was 4.5 mL/min/kg. The Apparent oral clearance ([4]; Child's Class C) was 4.1 mL/min/kg, the Apparent oral clearance ([4]; healthy adults) was 9.1 mL/min/kg and the “Gender differences in pharmacokinetics of GHB” value [5] was “no gender differences”. The Developmental toxicity (pregnant rabbits) was “no clear evidence of developmental toxicity”, the Micronucleus (rat [6]) was “negative” and the “Inhibition of CYP2C9” value (CYP2C9) was “does not significantly inhibit”. The “Plasma exposure (AUC) relative to humans at the MRHD” value (rats [7]; highest dose tested) was 2 times, the Tumors (rats [7]; up to 1,000 mg/kg/day for 83 (males) or 104 (females) weeks) was “no increase in tumors” and the “Mortality in juvenile rats” value (rats [8]) was “mortality was observed at the two highest doses tested”.

For O=C1CCCO1 [gamma-butyrolactone], the Carcinogenic activity (rat [9]) is given as “no clear evidence of carcinogenic activity” and the Carcinogenic activity (mouse) is given as “no clear evidence of carcinogenic activity”.
